For assay [1], the system named is C. albicans strain HLY4123 and clinical isolates 26 and 45. Kind of assay: Checkerboard assay (MIC90, FIC index). To be noted: for MIC90: Candida albicans; for FICI: Compound 25 + fluconazole. The format is cell-based, Candida albicans. As to the method: Checkerboard assays were carried out using four 24-well plates. The results on each plate were normalized by duplication of one row and one column with a row and column on another plate. C. albicans was grown in SC medium overnight and then diluted to an effective OD600 of 0.0625. Serial ten-fold dilutions of the test compounds (150 mM) were prepared in DMSO in 1.5 mL Eppendorf tubes. […] Concentrations of compound in rows 1-11 varied from 300 μM to 0.0003 nM; the last row 12 contained no compound. […] The plates were incubated in a rotary shaker/incubator at 30° C. for 16 h. The contents of each well was resuspended with a micropipettor and a 20 μL aliquot was added to a polystyrene cuvette and diluted with 680 μL of deionized water. The suspension was triturated again immediately before measuring the absorbance at 600 nm. The MIC90 values were determined as the lowest concentrations of the drugs (alone or in combination) that inhibited fungal growth by 90% compared with that of the drug-free wells.
In all of the strains tested, the FIC index was below 0.5, fitting the classical definition of synergy.

The target of a further assay is T1, Cdr1 (Candida albicans, UniProt Q5ANA3).
T1 construct: endogenous in cells; host or cells: Candida albicans SC5314 (wild type)
The assay is described as follows: Efflux of Rhodamine 6G (Cdr1 efflux assay). To be noted: C. albicans SC5314; R6G 10 μM; Compound 1 0.3, 3 and 30 μM. The format is cell-based. As to the method: Efflux of Rhodamine 6 G. Efflux of R6G was measured generally base on a method described previously by Shukla (cited below). Briefly, C. albicans SC5314 grown overnight at 30° C. in SC medium were transferred to fresh SC medium with a 1:50 dilution and grown at 30° C. with constant shaking for about 5 h. Cells were then pelleted, washed twice with phosphate-buffered saline (PBS), and resuspended in PBS as about 3 OD600 nm. The cells were then deenergized for 45 min in […] 2-deoxy-D-glucose. The cells were pelleted, washed and resuspended in PBS as 3 OD600 nm, to which compounds (30 μM or noted) and R6G (10 μM) were added successively and incubated at 30° C. for 40 min. Cells were collected, washed and resuspended in PBS with or without compounds and incubated at 30° C. Two percent glucose was added at time point 20 min to initiate the energy-dependent efflux. Samples were taken out every 10 min and the absorption of the supernatant was detected at 527 nm.
To further determine if the spiroindolinone functions by inhibiting Cdr1, the activity of efflux pumps was determined by monitoring the efflux of R6G, a fluorescent compound that is used for Cdr1 efflux assay in C. albicans. […] Extracellular R6G concentrations were quantified by measuring the absorbance of the supernatant at 527 nm. […]

Assay [2] concerns heterozygous deletion C. albicans strains. The assay is described as follows: Whole genome Haploinsufficiency Profiling (HIP). To be noted: 0.05 μM Compound 1 + 0.125 μg/ml FLC vs. 0.125 μg/ml FLC. The format is cell-based, Candida albicans. As to the method:
Whole genome Haploinsufficiency Profiling (HIP) analysis. Haplo-Insufficiency Profiling (HIP) with the Double BarCoded (DBC) library was used. A pool of 5,470 heterozygous deletion C. albicans strains constructed by Merck, to identify potential targets for the azole-synergizer, Compound 1. The collection, obtained from Merck Sharp & Dohme Corp in 96-well plates, were transferred to YPD (2% peptone, 1% yeast extract, and 2% glucose) agar plates and grown at 30° C. for 72 h. All colonies were collected from plates and pooled in SC medium, add glycerol to 15% and adjust to the final concentration of 50 OD600 nm per milliliter, store in aliquot at −80° C.
Stock pools were diluted into SC medium to an OD600 nm of 0.0875 and drug treatments were performed in a 1 ml SC medium in 24-well plates. The appropriate drug treatment concentrations were determined before screening. […]
Bioinformatics analysis of HIP. Sequencing reads were first separated by their experimental tags into treatments and then filtered by UPTAG or DNTAG. Among the reads mapped with experimental tags, more than 95% can be filtered exclusively by UPTAG or DNTAGs. Filtered reads were mapped to an artificial genome containing each individual gene in the library identified by UPTAG or DNTAG using bowtie 1.0.
Read counts per gene were calculated using a weighted arithmetic mean of mapped UPTAG and DNTAG read counts. […]

Like-named read-outs stand apart in the source and are kept apart here. Some results are limits rather than exact numbers.

A word on the MIC90: it is the lowest concentration that inhibits either 90% of growth or 90% of the strains tested, depending on the study.

T1 sequence (Q5ANA3 whole entry): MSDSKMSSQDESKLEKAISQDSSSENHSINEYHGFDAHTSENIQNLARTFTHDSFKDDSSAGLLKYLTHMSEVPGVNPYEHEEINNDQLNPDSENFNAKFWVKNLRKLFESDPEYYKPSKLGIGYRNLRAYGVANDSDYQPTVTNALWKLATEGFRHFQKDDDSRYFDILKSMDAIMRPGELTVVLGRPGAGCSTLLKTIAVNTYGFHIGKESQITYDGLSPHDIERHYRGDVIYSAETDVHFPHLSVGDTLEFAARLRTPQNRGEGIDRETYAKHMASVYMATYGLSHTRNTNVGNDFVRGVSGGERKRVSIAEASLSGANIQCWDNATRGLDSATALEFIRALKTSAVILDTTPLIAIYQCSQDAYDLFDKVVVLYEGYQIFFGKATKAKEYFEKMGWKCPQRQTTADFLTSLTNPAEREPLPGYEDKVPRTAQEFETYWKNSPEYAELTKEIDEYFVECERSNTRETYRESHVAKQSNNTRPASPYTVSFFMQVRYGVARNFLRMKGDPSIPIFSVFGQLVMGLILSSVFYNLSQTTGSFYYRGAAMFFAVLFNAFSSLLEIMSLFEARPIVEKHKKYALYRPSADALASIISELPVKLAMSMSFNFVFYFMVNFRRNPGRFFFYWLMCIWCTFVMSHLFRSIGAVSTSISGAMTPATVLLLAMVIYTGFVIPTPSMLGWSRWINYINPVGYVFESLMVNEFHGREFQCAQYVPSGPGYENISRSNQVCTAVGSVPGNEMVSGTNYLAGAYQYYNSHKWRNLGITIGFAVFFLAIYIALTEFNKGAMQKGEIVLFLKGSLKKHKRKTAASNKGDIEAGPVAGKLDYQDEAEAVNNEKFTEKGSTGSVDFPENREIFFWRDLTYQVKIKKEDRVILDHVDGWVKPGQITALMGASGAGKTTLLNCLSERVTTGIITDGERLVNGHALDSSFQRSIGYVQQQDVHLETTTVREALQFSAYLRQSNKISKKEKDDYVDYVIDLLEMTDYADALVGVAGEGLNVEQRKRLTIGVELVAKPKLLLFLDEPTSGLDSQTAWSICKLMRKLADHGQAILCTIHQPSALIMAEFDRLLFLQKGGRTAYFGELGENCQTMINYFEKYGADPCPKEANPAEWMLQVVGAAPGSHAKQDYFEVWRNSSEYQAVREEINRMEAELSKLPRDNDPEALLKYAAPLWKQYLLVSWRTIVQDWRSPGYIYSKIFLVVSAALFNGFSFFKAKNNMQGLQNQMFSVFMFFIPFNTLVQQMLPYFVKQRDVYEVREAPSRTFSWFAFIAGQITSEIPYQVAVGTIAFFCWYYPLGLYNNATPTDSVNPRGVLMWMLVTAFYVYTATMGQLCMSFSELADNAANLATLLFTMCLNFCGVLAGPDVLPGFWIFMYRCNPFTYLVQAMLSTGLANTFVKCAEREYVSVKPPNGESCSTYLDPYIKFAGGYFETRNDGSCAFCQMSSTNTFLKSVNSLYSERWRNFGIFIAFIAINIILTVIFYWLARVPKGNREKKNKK

As to `Cc1c(Cl)ccc2c1NC(=O)[C@@]21[C@H]2C(=O)N(c3ccccc3)C(=O)[C@H]2[C@H]2CN(C(=O)OCc3ccccc3)CCN21` (racemic) [Compound 25, (±)-benzyl (3R,3a′R,3b'S,9a'S)-6-chloro-7-methyl-1′,2,3′-trioxo-2′-phenyl-2′,3′,3a′,3b′,4′,6′,7′,9a′-octahydrospiro[indoline-3,9′-pyrrolo[3′,4′:3,4]pyrrolo[1,2-a]pyrazine]-5′(1′H)-carboxylate], the MIC90 in assay [1] (read-out: MICcpd (+Flc) (MIC90), clinical isolate 26, with fluconazole) was 0.3 µM; in assay [1] (read-out: MICcpd (+Flc) (MIC90), clinical isolate 45, with fluconazole), 0.03 µM; in assay [1] (read-out: MICcpd (+Flc) (MIC90), strain HLY4123, with fluconazole), 0.03 µM; in assay [1] (read-out: MICcpd (MIC90), clinical isolate 26, compound alone), > 30 µM; in assay [1] (read-out: MICcpd (MIC90), clinical isolate 45, compound alone) it was > 30 µM; in assay [1] (read-out: MICcpd (MIC90), strain HLY4123, compound alone) it was > 300 µM. Further, the FIC index result in assay [1] (all of the strains tested, with fluconazole) is “below 0.5”. In addition, the “toxicity of compound alone against the strains” value in assay [1] (alone, at the solubility limit, any of the strains) is on record as “did not have measurable toxicity”. Further, the FICI is 0.14 in assay [1] (clinical isolate 26), 0.13 in assay [1] (clinical isolate 45) and 0.25 in assay [1] (strain HLY4123).

With `Cc1c(Cl)ccc2c1NC(=O)[C@]21N[C@H](Cc2ccccc2)[C@@H]2C(=O)N(c3ccc(F)cc3)C(=O)[C@@H]21` (racemic) [Compound 1, (±)-(3R,3′R,3a′R,6a'S)-3′-benzyl-6-chloro-5′-(4-fluorophenyl)-7-methyl-2′,3′,3a′,6a′-tetrahydro-4′H-spiro[indoline-3,1′-pyrrolo[3,4-c]pyrrole]-2,4′,6′(5′H)-trione], on Cdr1, the “energy dependent efflux of R6G” value was “almost totally inhibited”. The “HIP profiling, mutants with significant change in abundance” value in assay [2] is on record as “cdr1/CDR1 emerged as the only mutant that showed a significant change in abundance”.

Values taken from US11174267B2, “Spiroindolinones and therapeutic uses thereof” (The Regents of the University of California, priority 2015, dated 2021).
